Data published in patent US10028961B2, “Therapeutically active compounds and their methods of use” (AGIOS PHARMACEUTICALS, INC., priority 2013, dated 2018).

How the values were obtained:
[1] = target: IDH1-R132H homodimer enzyme (Homo sapiens (Human), UniProt O75874, R132H); assay: In vitro assay IDH1-R132H homodimer, NADPH depletion assay with NADPH/NADP preincubation; type: biochemical; settings: 5 μM NADPH and 37.5 μM NADP
Outline: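 Compounds were added from DMSO at 50× final concentration, and the mutant enzyme was incubated 60 min at room temperature after starting with a substrate mix holding NADPH and 5 mM alpha-ketoglutarate. Residual cofactor, read by fluorescence after excess diaphorase and resazurin, reflects enzyme turnover.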

[2] = target: IDH1-R132C homodimer enzyme (Homo sapiens (Human), UniProt O75874, R132C); assay: In vitro assay IDH1-R132C homodimer, NADPH depletion assay with NADPH/NADP preincubation; type: biochemical; settings: 5 uM NADPH and 28.75 uM NADP, read-out: IDH R132C NADPH/NADP IC50
Method: The following describes the experimental procedures that can be used to obtain data on columns 3 and 5 of Table 5.
A test compound is prepared as 10 mM stock in DMSO and diluted to 50× final concentration in DMSO, for a 50 μl reaction mixture. IDH enzyme activity converting alpha-ketoglutarate to 2-hydroxyglutaric acid is measured using a NADPH depletion assay. In the assay the remaining cofactor is measured at the end of the reaction with the addition of a catalytic excess of diaphorase and resazurin, to generate a fluorescent signal in proportion to the amount of NADPH remaining. […] The reaction is started with the addition of 10 μl of Substrate Mix ([…], 5 mM alpha-ketoglutarate, in Assay Buffer) and the mixture is incubated for 60 minutes at room temperature.
The concentration of alpha-ketoglutarate in the Substrate Buffer is 1 mM.

IDH2 R140Q = IDH2 R140Q (Homo sapiens (Human), UniProt P48735, R140Q); assay: In vitro assay for IDH2m R140Q inhibitors, cofactor depletion assay; type: biochemical; settings: IDH2 R140Q enzyme
Outline: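 Remaining cofactor measured fluorimetrically: diaphorase/resazurin Stop Mix […], halting the reaction. Before that, mutant enzyme and compound sat 1 h at RT, then substrate mix (4 μM NADPH, 1.6 mM α-KG) was added for 16 h at RT.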

HT1080 cells = assay: Cellular assay for IDH1m R132C inhibitors, 2-HG by LC-MS in HT1080 cells; type: cell-based; settings: Homo sapiens, HT-1080
Outline: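 2-HG levels were measured by LC-MS in culture medium sampled 48 h after compound addition (0.2% DMSO) to HT1080 cells seeded overnight at 5000 cells/well. A CellTiter-Glo luminescence read at 72 h gave cell viability.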

IDH2 R140Q, sequence (P48735 40-452 R140Q): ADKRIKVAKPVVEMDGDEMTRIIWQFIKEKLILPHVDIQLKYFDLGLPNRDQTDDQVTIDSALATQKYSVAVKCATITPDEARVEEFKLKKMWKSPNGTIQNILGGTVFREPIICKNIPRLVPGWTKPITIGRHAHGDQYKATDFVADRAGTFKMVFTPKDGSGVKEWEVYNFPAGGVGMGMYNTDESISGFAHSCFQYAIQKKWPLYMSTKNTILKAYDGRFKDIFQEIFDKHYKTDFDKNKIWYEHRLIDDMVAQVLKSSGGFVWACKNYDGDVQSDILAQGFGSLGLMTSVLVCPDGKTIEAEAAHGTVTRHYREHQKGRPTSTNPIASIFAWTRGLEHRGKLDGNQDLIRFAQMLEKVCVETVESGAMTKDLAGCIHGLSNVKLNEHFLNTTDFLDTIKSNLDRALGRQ
IDH1-R132C homodimer enzyme, sequence (O75874 whole entry R132C): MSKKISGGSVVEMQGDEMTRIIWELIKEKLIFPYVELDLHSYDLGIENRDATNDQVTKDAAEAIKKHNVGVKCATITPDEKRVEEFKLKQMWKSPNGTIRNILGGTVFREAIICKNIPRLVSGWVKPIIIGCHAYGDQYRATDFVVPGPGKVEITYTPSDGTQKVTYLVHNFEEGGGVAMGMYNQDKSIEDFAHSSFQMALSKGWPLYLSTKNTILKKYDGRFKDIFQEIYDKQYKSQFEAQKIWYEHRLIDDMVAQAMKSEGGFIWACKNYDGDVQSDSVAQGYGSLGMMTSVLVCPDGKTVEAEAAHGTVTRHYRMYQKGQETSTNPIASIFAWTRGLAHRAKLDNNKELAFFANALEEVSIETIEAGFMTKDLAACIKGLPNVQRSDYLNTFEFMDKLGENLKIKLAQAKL
IDH1-R132H homodimer enzyme, sequence (O75874 whole entry R132H): as the sequence (O75874 whole entry R132C) above, with C132H counted along it

Row | Structure (SMILES) | IC50 [1] [µM] | IC50 [2] [µM] | IC50 (IDH2 R140Q) [µM] | IC50 (HT1080 cells) [µM]
1 | Fc1cc(F)cc(Nc2nc(NC3CC(F)(F)C3)nc(-n3ccc(C(F)(F)F)n3)n2)c1 [Compound 106] | < 0.05 | < 0.05 | < 0.05 | 0.1 to 1
2 | FC1(F)CCC(Nc2nc(NC3CCC(F)(F)CC3)nc(-c3cncc(C(F)(F)F)n3)n2)CC1 [Compound 160] | 0.05 to 0.1 | 0.1 to 1 | < 0.05 | < 0.05
3 | FC1(F)CC(Nc2nc(NC3CC(F)(F)C3)nc(-c3cncc(C(F)(F)F)n3)n2)C1 [Compound 161] | < 0.05 | 0.05 to 0.1 | < 0.05 | < 0.05
4 | N#CC1(c2cc(Nc3nc(NC4CC(F)(F)C4)nc(-c4cccc(C(F)(F)F)n4)n3)ccn2)CC1 [Compound 168] | < 0.05 | 0.05 to 0.1 | < 0.05 | < 0.05
5 | N#CC1(c2cc(Nc3nc(NC4CCC(F)(F)CC4)nc(-c4cccc(C(F)(F)F)n4)n3)ccn2)CC1 [Compound 189] | 0.1 to 1 | 0.1 to 1 | < 0.05 | 0.1 to 1
6 | FC1(F)CCC(Nc2nc(Nc3ccnc(C(F)(F)F)c3)nc(-c3cncc(C(F)(F)F)n3)n2)CC1 [Compound 389] | 0.05 to 0.1 | 0.1 to 1 | < 0.05 | 0.1 to 1
7 | FC1(F)CC[C@H](Nc2nc(Nc3ccnc(C(F)(F)F)c3)nc(-c3cncc(C(F)(F)F)n3)n2)C1 [Compound 391] | 0.05 to 0.1 | 0.1 to 1 | < 0.05 | 0.1 to 1
8 | N#CC1(c2cc(Nc3nc(NC4CC(F)(F)C4)nc(-c4cncc(C(F)(F)F)n4)n3)ccn2)CC1 [Compound 401] | < 0.05 | 0.1 to 1 | < 0.05 | 0.1 to 1
